ChEMBL document CHEMBL3616405 (J Med Chem, 2015)
pEC50, pIC50: −log10 of the molar value.

How the values were obtained:
[1] = target: T1, Glucagon-like peptide 1 receptor (Homo sapiens, UniProt P43220); assay: Displacement of [125I]-GLP1 from human GLP1 receptor expressed in BHK cells after 2 hrs in absence of human serum albumin; assay type: cell-based
[2] = target: T1, Glucagon-like peptide 1 receptor; assay: Displacement of [125I]-GLP1 from human GLP1 receptor expressed in BHK cells after 2 hrs in presence of 2% human serum albumin; assay type: cell-based
[3] = target: T1, Glucagon-like peptide 1 receptor; assay: Agonist activity at human GLP1 receptor expressed in BHK cells after 3 hrs by CRE firefly luciferase reporter gene assay in absence of human serum albumin; assay type: functional, cell-based

T1 sequence (P43220 whole entry): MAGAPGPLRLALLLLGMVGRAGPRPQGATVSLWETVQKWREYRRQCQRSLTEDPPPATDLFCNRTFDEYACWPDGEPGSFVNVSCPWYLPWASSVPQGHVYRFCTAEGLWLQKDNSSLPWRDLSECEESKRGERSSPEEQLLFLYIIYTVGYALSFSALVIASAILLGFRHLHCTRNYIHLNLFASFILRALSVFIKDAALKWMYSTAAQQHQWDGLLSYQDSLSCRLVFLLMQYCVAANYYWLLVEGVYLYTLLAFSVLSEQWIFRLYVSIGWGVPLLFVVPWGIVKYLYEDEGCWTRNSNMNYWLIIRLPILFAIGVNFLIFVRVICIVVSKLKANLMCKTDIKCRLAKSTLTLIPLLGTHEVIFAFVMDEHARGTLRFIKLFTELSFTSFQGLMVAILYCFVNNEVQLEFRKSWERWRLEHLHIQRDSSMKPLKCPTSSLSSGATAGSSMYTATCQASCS

| pIC50 [1] | pIC50 [2] | pEC50 [3] | SMILES |
| --- | --- | --- | --- |
| 8.58 | 8.05 | 10.80 | CC[C@H](C)[C@H](NC(=O)[C@H](Cc1ccccc1)NC(=O)[C@H](CCC(=O)O)NC(=O)[C@H](CCCCNC(=O)COCCOCCNC(=O)COCCOCCNC(=O)CC[C@H](NC(=O)CCCCCCCCCCCCC(=O)O)C(=O)O)NC(=O)[C@H](C)NC(=O)[C@H](C)NC(=O)[C@H](CCC(N)=O)NC(=O)CNC(=O)[C@H](CCC(=O)O)NC(=O)[C@H](CC(C)C)NC(=O)[C@H](Cc1ccc(O)cc1)NC(=O)[C@H](CO)NC(=O)[C@H](CO)NC(=O)[C@@H](NC(=O)[C@H](CC(=O)O)NC(=O)[C@H](CO)NC(=O)[C@@H](NC(=O)[C@H](Cc1ccccc1)NC(=O)[C@@H](NC(=O)CNC(=O)[C@H](CCC(=O)O)NC(=O)C(C)(C)NC(=O)[C@@H](N)Cc1c[nH]cn1)[C@@H](C)O)[C@@H](C)O)C(C)C)C(=O)N[C@@H](C)C(=O)N[C@@H](Cc1c[nH]c2ccccc12)C(=O)N[C@@H](CC(C)C)C(=O)N[C@H](C(=O)N[C@@H](CCCNC(=N)N)C(=O)NCC(=O)N[C@@H](CCCNC(=N)N)C(=O)NCC(=O)O)C(C)C |
| 9.30 | 7.59 | 11.00 | CC[C@H](C)[C@H](NC(=O)[C@H](Cc1ccccc1)NC(=O)[C@H](CCC(=O)O)NC(=O)[C@H](CCCCN)NC(=O)[C@H](C)NC(=O)[C@H](C)NC(=O)[C@H](CCC(N)=O)NC(=O)CNC(=O)[C@H](CCC(=O)O)NC(=O)[C@H](CC(C)C)NC(=O)[C@H](Cc1ccc(O)cc1)NC(=O)[C@H](CO)NC(=O)[C@H](CO)NC(=O)[C@H](CCCCNC(=O)COCCOCCNC(=O)COCCOCCNC(=O)CC[C@H](NC(=O)CCCCCCCCCCCCCCCCC(=O)O)C(=O)O)NC(=O)[C@H](CC(=O)O)NC(=O)[C@H](CO)NC(=O)[C@@H](NC(=O)[C@H](Cc1ccccc1)NC(=O)[C@@H](NC(=O)CNC(=O)[C@H](CCC(=O)O)NC(=O)C(C)(C)NC(=O)[C@@H](N)Cc1c[nH]cn1)[C@@H](C)O)[C@@H](C)O)C(=O)N[C@@H](C)C(=O)N[C@@H](Cc1c[nH]c2ccccc12)C(=O)N[C@@H](CC(C)C)C(=O)N[C@H](C(=O)N[C@@H](CCCCN)C(=O)NCC(=O)N[C@@H](CCCNC(=N)N)C(=O)NCC(=O)O)C(C)C |
| 9.57 | 8.17 | 10.17 | CC[C@H](C)[C@H](NC(=O)[C@H](Cc1ccccc1)NC(=O)[C@H](CCC(=O)O)NC(=O)[C@H](CCCCN)NC(=O)[C@H](C)NC(=O)[C@H](C)NC(=O)[C@H](CCC(N)=O)NC(=O)CNC(=O)[C@H](CCC(=O)O)NC(=O)[C@H](CC(C)C)NC(=O)[C@H](Cc1ccc(O)cc1)NC(=O)[C@H](CO)NC(=O)[C@H](CO)NC(=O)[C@@H](NC(=O)[C@H](CC(=O)O)NC(=O)[C@H](CO)NC(=O)[C@@H](NC(=O)[C@H](Cc1ccccc1)NC(=O)[C@@H](NC(=O)CNC(=O)[C@H](CCC(=O)O)NC(=O)C(C)(C)NC(=O)[C@@H](N)Cc1c[nH]cn1)[C@@H](C)O)[C@@H](C)O)C(C)C)C(=O)N[C@@H](C)C(=O)N[C@@H](Cc1c[nH]c2ccccc12)C(=O)N[C@@H](CC(C)C)C(=O)N[C@H](C(=O)N[C@@H](CCCNC(=N)N)C(=O)NCC(=O)N[C@@H](CCCNC(=N)N)C(=O)NCC(=O)N[C@@H](CCCCNC(=O)COCCOCCNC(=O)COCCOCCNC(=O)CCCCCCCCCCCCCCCCC(=O)O)C(=O)O)C(C)C |
